Measured values: the supplement of paper PMC10307832

What was measured:
Assay in all cases: relative viability (nuclei count vs DMSO), 5 days (fraction); higher = more cells survive
[1] = compound: C=CCc1cccc(/C=N/NC(=O)CN2CCN(Cc3ccccc3)CC2)c1O [PAC-1] + CC(=O)Nc1cccc(-n2c(=O)n(C3CC3)c(=O)c3c(Nc4ccc(I)cc4F)n(C)c(=O)c(C)c32)c1 [Trametinib] (partner 0.02 µM)
How it was run: (§1)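 Nuclei were stained with Hoechst during a one-step fixation (final 0.05% Triton X-100, 1% formaldehyde, 1 ug/ml Hoechst) carried out 5 days after dosing, then counted on 4× images. The cells, lung cancer lines in 1536-well plates, had been dosed by pin tool the day after seeding with one drug alone or a fixed anchor-drug dose plus five library-drug doses (not always all listed) in √10 steps. Relative viability is the nuclei count in treated wells divided by that in vehicle wells, and each value is the median of duplicate plates.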

[2] = compound: C=CCc1cccc(/C=N/NC(=O)CN2CCN(Cc3ccccc3)CC2)c1O [PAC-1] + C[C@]1(O)C[C@@H](c2nc(-c3ccc4ccc(-c5ccccc5)nc4c3)c3c(N)nccn32)C1 [Linsitinib] (partner 1 µM)
How it was run: as §1

[3] = compound: C=CCc1cccc(/C=N/NC(=O)CN2CCN(Cc3ccccc3)CC2)c1O [PAC-1] + CC1(C)CCC(c2ccc(Cl)cc2)=C(CN2CCN(c3ccc(C(=O)NS(=O)(=O)c4ccc(N[C@H](CCN5CCOCC5)CSc5ccccc5)c(S(=O)(=O)C(F)(F)F)c4)cc3)CC2)C1 [Navitoclax] (partner 0.5 µM)
How it was run: as §1

[4] = compound: C=CC(=O)Nc1cc(-n2c(=O)ccc3cnc4ccc(-c5ccc(NS(C)(=O)=O)cc5)cc4c32)ccc1C [BMX-IN-1] + Cc1nc(Nc2ncc(C(=O)Nc3c(C)cccc3Cl)s2)cc(N2CCN(CCO)CC2)n1 [Dasatinib] (partner 0.075 µM)
How it was run: as §1

| Cell Line | relative viability ([1]; first compound 0.02 µM) | relative viability ([1]; first compound 0.06325 µM) | relative viability ([1]; first compound 0.2 µM) | relative viability ([1]; first compound 2 µM) | relative viability ([2]; first compound 0.02 µM) | relative viability ([2]; first compound 0.06325 µM) | relative viability ([2]; first compound 0.2 µM) | relative viability ([2]; first compound 2 µM) | relative viability ([3]; first compound 0.02 µM) | relative viability ([3]; first compound 0.06325 µM) | relative viability ([3]; first compound 0.2 µM) | relative viability ([3]; first compound 2 µM) | relative viability ([4]; first compound 0.02 µM) | relative viability ([4]; first compound 0.2 µM) | relative viability ([4]; first compound 0.6325 µM) | relative viability ([4]; first compound 2 µM) |
| --- | --- | --- | --- | --- | --- | --- | --- | --- | --- | --- | --- | --- | --- | --- | --- | --- |
| 201T | 0.732 | 0.717 | 0.687 | 0.717 | 1.08 | 0.991 | 1.02 | 1 | 1.21 | 1.23 | 1.21 | 1.16 | 0.659 | 0.681 | 0.687 | 0.567 |
| A549 |  |  |  |  | 0.527 | 0.612 | 0.523 | 0.583 | 1.25 | 1.18 | 1.14 | 1.23 |  |  |  |  |
| A-427 | 0.767 | 0.778 | 0.817 | 0.796 | 1.14 | 1.14 | 1.15 | 1.08 | 1 | 0.92 | 0.908 | 0.907 | 0.731 | 1.01 | 0.782 | 0.664 |
| ABC-1 |  |  |  |  | 0.791 | 0.746 | 0.822 | 1.02 |  |  |  |  | 0.465 | 0.545 | 0.598 | 0.601 |
| BEN | 1.08 | 1.09 | 1.17 | 0.923 | 0.934 | 0.91 | 0.918 | 0.873 | 0.0891 | 0.0706 | 0.0845 | 0.0674 | 0.308 | 0.34 | 0.241 | 0.295 |
| CAL-12T | 0.329 | 0.359 | 0.353 | 0.386 | 0.925 | 0.823 | 0.669 | 0.808 | 1.43 | 1.21 | 1.31 | 1.26 | 0.353 | 0.444 | 0.528 | 0.366 |
| COR-L23 | 0.586 | 0.66 |  | 0.673 | 0.945 | 0.937 | 0.861 | 1.03 | 0.874 | 0.984 | 0.908 | 0.999 | 0.523 | 0.544 | 0.594 | 0.528 |
| COR-L 105 | 0.436 | 0.453 | 0.47 | 0.355 | 0.962 | 0.852 | 0.868 | 1.13 | 0.852 | 0.725 | 1.38 | 0.841 | 0.324 | 0.297 | 0.342 | 0.305 |
| Calu-6 |  |  |  |  | 0.826 | 0.902 |  | 0.962 | 0.817 | 0.861 | 0.878 | 0.855 |  |  |  |  |
| ChaGo-K-1 | 0.951 | 0.917 | 0.837 | 0.94 |  |  |  |  | 1.2 | 1.08 | 1.21 | 1.08 | 0.63 | 0.598 | 0.633 | 0.561 |
| EBC-1 |  |  |  |  | 0.832 | 0.923 | 0.821 | 0.86 | 0.382 | 0.336 | 0.443 | 0.33 |  |  |  |  |
| EKVX | 0.369 | 0.314 | 0.314 | 0.35 | 1.03 | 1.02 | 0.941 | 0.917 | 1.07 | 0.926 | 0.86 | 0.979 | 0.532 | 0.474 | 0.484 | 0.59 |
| EMC-BAC-2 | 1.07 | 0.925 | 0.913 | 0.849 | 0.8 | 0.815 | 0.825 | 0.82 | 1.14 | 1.22 | 1.19 | 1.14 | 0.348 | 0.345 | 0.326 | 0.353 |
| EPLC-272H | 0.251 | 0.322 | 0.301 | 0.28 |  | 1.14 | 0.934 | 1.07 |  | 1.09 | 1 | 1.04 | 0.354 | 0.266 | 0.393 | 0.314 |
| H3255 | 0.713 | 0.746 | 0.587 | 0.512 | 1.05 | 0.952 | 0.862 | 0.913 | 0.544 | 0.537 | 0.561 | 0.595 | 0.363 | 0.394 | 0.397 | 0.33 |
| HARA | 0.632 | 0.697 | 0.621 | 0.473 | 0.873 | 0.958 | 0.851 | 1.09 | 1.15 | 1.11 | 1.14 | 1.15 | 0.258 | 0.305 | 0.342 | 0.244 |
| HCC-15 | 0.373 | 0.38 | 0.419 | 0.41 | 0.967 | 0.876 | 0.795 | 0.935 | 0.735 | 0.685 | 0.676 | 0.74 | 0.662 | 0.64 | 0.745 | 0.64 |
| HCC-44 | 1.05 | 1.08 | 1.07 | 1.02 | 0.684 | 0.68 | 0.678 | 0.712 | 1.01 | 0.977 | 0.978 | 1.01 |  |  |  |  |
| HCC-78 | 0.725 | 0.725 | 0.849 | 0.782 | 0.565 | 0.607 | 0.544 | 0.467 | 0.719 | 0.748 | 0.699 | 0.646 | 0.379 | 0.421 | 0.37 | 0.462 |
| HCC-366 | 0.339 | 0.318 | 0.312 | 0.365 | 0.587 | 0.699 | 0.441 | 0.772 | 1.13 | 1.01 | 1.1 | 1.09 | 0.907 | 0.741 | 0.618 | 0.71 |
| HCC-827 | 0.505 | 0.569 | 0.528 | 0.536 | 0.981 | 0.966 | 0.932 | 0.942 | 1.04 | 0.986 | 0.983 | 0.989 | 0.296 | 0.277 | 0.371 | 0.276 |
| HOP-62 | 0.387 | 0.404 | 0.388 | 0.406 | 1.01 | 0.927 | 0.977 | 0.939 | 1.04 | 1.02 | 0.58 | 0.988 | 0.587 | 0.786 | 0.768 | 0.729 |
| IA-LM |  |  |  |  | 0.771 | 0.716 | 0.639 | 0.58 | 0.78 | 0.92 | 0.632 | 0.657 |  |  |  |  |
